Assay results published in patent US20070232904A1, “Application of Hyaluronic Acid to Sentinel Lymph Node Identification” (OAKLEY, INC., priority 2004, published 2007).

Tested on: sentinel lymph node (SLN)
Experiment: Sentinel lymph node detection after submucosal injection in stomach and small intestine of laparotomized pig, observed by color change
Type: in vivo
Details: 0.5 mL submucosal
Description: A pig was laparotomized under general anesthesia and the mixture of the sodium hyaluronate and the patent blue prepared in (1) above and patent blue alone as a control were each injected at two locations which were in the tissues (submucosal) of the stomach and small intestine at 0.5 mL each, and migration from the lymphatic vessels to the lymph nodes was monitored for 3 hours after injection based on the changes in color under laparotomy. […] In addition, the colored lymph nodes were investigated histologically after 3 hours and after 24 hours. A pig was laparotomized under general anesthesia and the mixture of the sodium hyaluronate and the ferumoxides injection solution prepared in (1) above and the ferumoxides injection solution alone as a control were each injected at two locations which were in the tissues (submucosal) of the stomach and small intestine at 0.5 mL each, and migration from the lymphatic vessels to the lymph nodes was monitored for 3 hours after injection based on the changes in color under laparotomy. […] In addition, the colored lymph nodes were investigated histologically after 3 hours and after 24 hours. […]

time to almost complete disappearance from the associated lymphatic system (after injection): ≤ 2 h
SMILES: CCN(CC)c1ccc(C(=C2C=CC(=[N+](CC)CC)C=C2)c2cc(O)c(S(=O)(=O)O)cc2S(=O)(=O)O)cc1 [patent blue]
time until staining of the lymphatic system / SLN after injection (stomach and small intestine wall): several minutes
